The values that follow come from article PMC10688702, “The indole motif is essential for the antitrypanosomal activity of N^5-substituted paullones” (PLOS ONE, 2023).

In series [1] the test system is TryS. Also noted: method as in Torrie et al. 18. As to conditions: ref Torrie et al. 18; cited from earlier work.
The target in series [2] is T1, trypanothione synthetase of L. infantum (LiTryS) (Leishmania infantum, UniProt A4I2Z3). The series is described as follows: TryS activity screening assay on recombinant LiTryS. The class given is biochemical. As to conditions: read-out: LiTryS activity [% at 30 μM]. The essentials:
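N-His-tagged TryS from E. coli, purified by IMAC and SEC; end-point reaction with 150 μM ATP, 2 mM Spd, GSH 0.05 mM (TbTryS) or 0.25 mM (LiTryS), enzyme 3*10^−5 (TbTryS) or 2*10^−5 (LiTryS) μmol*min^-1*mL^-1. Stopped after 15 min with BIOMOL GREEN; A650 activity relative to blank-corrected DMSO control.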

Series [3] is described as follows: Kinetic aqueous solubility by nephelometry. The class given is physicochemical. As to conditions: phosphate-buffered saline, aqueous buffer, kinetic from dmso stock, PBS pH 7.4, 1% DMSO, 25°C, logS = decadic logarithm of molar solubility [M]. The procedure:
(§1) Phosphate-buffered saline pH 7.4 was prepared according to the European Pharmacopeia 10.4 by dissolving 2.38 g sodium monohydrogen phosphate dodecahydrate, 0.19 g potassium dihydrogen phosphate and 8.0 g sodium chloride in demineralised water (to a total volume of 1000 mL). The pH was adjusted to a value of 7.4 with hydrochloric acid. The buffer was filtered through a 0.45 μm membrane filter (Chromafil® Xtra PES-45/25) before use.
The kinetic aqueous solubility was determined by nephelometry. The measurements were performed on the NEPHELOstar Plus, with accompanying software Omega 5.11 and MARS 3.20 (BMG LABTECH, Ortenberg, Germany). Generally, 2 dilution series of 1–2 weighed portions of each substance were measured. First, stock solutions of the compounds were prepared in DMSO. A series of dilutions in DMSO were prepared from one stock solution to obtain at least 3 concentrations below and 3 concentrations above the precipitation point in the measured series. The specific concentrations were usually measured as duplicates.
The 96-well plate (Corning UV transparent flat-bottom 96-well plate, Corning Incorporated, Kennenbunk, ME, USA) was inspected for contamination and scratches and measured without samples prior to the solubility measurement of the compounds. 198 μL of phosphate-buffered saline pH 7.4 was placed in a 96 well plate for each well to be measured. 2 μL of a DMSO solution was added and immediately mixed by moving the pipette plunger. This solution either contained no substance—and served as a blank for the measurement (3 wells)—or the respective DMSO dilution of the substance (2–4 wells). The concentration of the solvent DMSO in each measured solution was 1%. The concentration of the compound corresponds to a 1:100 dilution compared to the respective DMSO dilution. The well plate bottom was cleaned with a lint-free cloth and compressed air and inspected for impurities before measurement. After shaking at 500 rpm for 10 s (double orbital), the measurement was carried out in the nephelometer with the laser intensity set to 80% and beam focus of 2.5 mm at a temperature of 25°C.
The obtained measuring points, relative nephelometric units (RNU) per compound concentration, were used to model two straight lines: one straight line with constant low readings and slope → 0 characterises the concentration range where no precipitation has taken place yet; The other straight line has a steep slope and increase of the RNU per concentration and characterises the concentrations at which precipitation takes place in the respective sample vessels.
The evaluation was carried out by calculating the two straight lines and their point of intersection. Outliers and values in a saturation range for the kick-off curve (usually >800 kRNU) were not used to create the straight lines and are listed separately in the evaluation file. […] The x-value of the intersection of the two straight lines represents the kinetic solubility. The results of two dilution series are additionally indicated as range (in brackets). For measurements of 3 or more series, a mean value with standard deviation is provided. The logS value describes the decadic logarithm of the molar solubility: logS (molar solubility [M]).

A short description of series [4]: Thermodynamic aqueous solubility, shake-flask method and HPLC-UV. The class given is physicochemical. As to conditions: phosphate-buffered saline, aqueous buffer, thermodynamic from solid, PBS pH 7.4, 25°C, up to 72 h, HPLC-UV, logS of molar solubility [M]. The procedure: as §1
The thermodynamic aqueous solubility was determined by a miniaturised shake-flask method. […] A negative control with the buffer (400 μL) was incubated for every time point and measured likewise. After incubation for 24 h, 48 h and 72 h, the vials were checked for undissolved compound; then the filter plunger was punched into the vial for filtration. […] The calibration curve was obtained from at least three dilutions and five measuring points from a DMSO stock solution of the respective compound.

Series [5] has as its system L. infantum amastigotes (intracellular, in J774.A1 macrophages). The series is described as follows: Viability assay for L. infantum amastigotes. The class given is cell-based. As to conditions: Leishmania infantum, J774.A1, 24 h, read-out: L. infantum amastigote viability [% at 20 μM]. The method in brief:
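Luciferase-expressing L. infantum metacyclic promastigotes (MHOM/MA/67/ITMAP263) infected J774.A1 murine macrophages at 1:10 for 24 h at 37 °C, 5% CO2. After compound treatment, a further 24 h incubation followed. Percent amastigote viability, in triplicate, was normalised to host-cell density by a propidium iodide correction factor.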

Series [6] deals with T1, trypanothione synthetase of L. infantum (LiTryS). As to conditions: Fig 3, known paullones; cited from earlier work.
The test system of series [7] is trypanothione synthetase of T. b. brucei (TbTryS). On the set-up: method as in PMID 27070550. As to conditions: cited from earlier work.
In series [8] the test system is bloodstream form of T. b. brucei strain 427. On the set-up: method as in PMID 27070550. As to conditions: displayed for comparison, read-out: T. b. brucei (BS) [EC50; cited from earlier work.
For series [9], the system named is LiTryS. Also noted: method as in ref 25, 26 = [25]; PMID 27070550; doi:10.1371/journal.pntd.0004617; 25 Benítez D , Medeiros A , Fiestas L , Panozzo-Zenere EA , Maiwald F , Prousis KC , et al . Identification of novel chemical scaffolds inhibiting trypanothione synthetase from pathogenic trypanosomat || [26]; PMID 32588679; doi:10.1080/14756366.2020.1780227; 26 Medeiros A , Benítez D , Korn RS , Ferreira VC , Barrera E , Carrión F , et al . Mechanistic and biological characterisation of novel N 5 -substituted paullones targeting the biosynthesis of trypan. As to conditions: versus substrates Spd, Gsp, ATP, GSH; cited from earlier work.

The test system of series [10] is Crithidia fasciculata TryS (CfTryS). Also noted: method as in ref 24–26 = [24]; 24 Stuhlmann F, Jäger T, Flohé L, Schinzer D, inventors. N 5 -substituted benzo[2,3]azepino[4,5- b ]indol-6-ones for treating tropical diseases. European Patent Office patent EP 1 757 607 A1. 2007 Feb || [25]; PMID 27070550; doi:10.1371/journal.pntd.0004617; 25 Benítez D , Medeiros A , Fiestas L , Panozzo-Zenere EA , Maiwald F , Prousis KC , et al . Identification of novel chemical scaffolds inhibiting trypanothione synthetase from pathogenic trypanosomat || [26]; PMID 32588679; doi:10.1080/14756366.2020.1780227; 26 Medeiros A , Benítez D , Korn RS , Ferreira VC , Barrera E , Carrión F , et al . Mechanistic and biological characterisation of novel N 5 -substituted paullones targeting the biosynthesis of trypan. As to conditions: cited from earlier work.

T1 sequence (A4I2Z3 entry or part of it): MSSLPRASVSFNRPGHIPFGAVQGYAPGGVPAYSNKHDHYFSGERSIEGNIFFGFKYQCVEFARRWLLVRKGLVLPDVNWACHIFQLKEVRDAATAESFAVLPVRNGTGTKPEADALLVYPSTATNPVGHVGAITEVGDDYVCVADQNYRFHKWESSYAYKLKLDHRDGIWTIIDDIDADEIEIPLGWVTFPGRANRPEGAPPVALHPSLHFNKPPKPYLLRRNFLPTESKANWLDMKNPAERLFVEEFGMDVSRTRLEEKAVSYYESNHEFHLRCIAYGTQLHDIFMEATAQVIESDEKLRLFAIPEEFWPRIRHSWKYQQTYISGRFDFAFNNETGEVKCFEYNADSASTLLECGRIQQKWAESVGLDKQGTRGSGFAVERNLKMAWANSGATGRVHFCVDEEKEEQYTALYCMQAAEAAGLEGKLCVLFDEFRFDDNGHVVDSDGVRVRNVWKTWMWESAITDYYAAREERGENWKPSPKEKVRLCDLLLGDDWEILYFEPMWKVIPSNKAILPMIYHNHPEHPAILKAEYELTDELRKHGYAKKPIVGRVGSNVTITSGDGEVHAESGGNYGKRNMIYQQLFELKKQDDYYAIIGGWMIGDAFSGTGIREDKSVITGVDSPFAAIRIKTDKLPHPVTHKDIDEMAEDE

As to `CN1CCN(CCCN2c3ccccc3Sc3ccc(Cl)cc32)CC1` [prochlorperazine], the “mode of TryS inhibition” value in series [1] was “Spd competitive behaviour”.

By solubility (kinetic) is commonly meant the concentration staying in solution when a stock, usually in DMSO, is diluted into the medium. As a reminder, the solubility (thermodynamic) is solubility found after equilibrating the solid with the medium. For `O=C(CN1C(=O)CCCc2ccccc21)N1CCCC1` [2j, 1-[2-Oxo-2-(pyrrolidin-1-yl)ethyl]-1,3,4,5-tetrahydro-2H-benzo[b]-azepin-2-one], the activity at 30 µM in series [2] came to 100 ± 6.6%. Moreover, the kinetic solubility at 10 s in [3] is > 0.00398 M. Also, the solubility (thermodynamic) at 72 h in [4] was > 0.049 M.

As usually defined, the viability is the share of living cells, or the viability signal relative to a control. On to `CC1(C)CCc2ccccc2N(CC(=O)NCCN2CCNCC2)C1=O.Cl.Cl` [3d, 2-(3,3-Dimethyl-2-oxo-2,3,4,5-tetrahydro-1H-benzo[b]azepin-1-yl)-N-[2-(piperazin-1-yl)ethyl]acetamide dihydrochloride], for which, in [2], the activity at 30 µM turned out to be 100 ± 5.1%. Further, the viability at 20 µM in [5] was 78.1 ± 14.4%. In series [3], the solubility (kinetic) at 10 s is > 0.002 M. Also, in [4], the thermodynamic solubility at 72 h is > 0.114 M.

Take `Cl.Cl.O=C(CN1C(=O)Cc2ccccc2-c2ccccc21)NCCN1CCNCC1` [4d, 2-(6-Oxo-6,7-dihydro-5H-dibenzo[b,d]azepin-5-yl)-N-[2-(piperazin-1-yl)ethyl]acetamide dihydrochloride]: the activity at 30 µM in series [2] was 99.5 ± 3.1%. Also, in series [5], the viability at 20 µM was found to be 89.5 ± 2.8%. Further, in [3], the solubility (kinetic) at 10 s is > 0.0002 M. In addition, in [4], the thermodynamic solubility at 72 h is > 0.0562 M.

With `NCCNC(=O)CN1C(=O)Cc2c([nH]c3ccc(Br)cc23)-c2ccc(Cl)cc21` [1d], the IC50 in series [6] was 0.3 µM.

`Cl.Cl.O=C(CN1C(=O)CCCc2ccccc21)NCCN1CCNCC1` [2o, 2-(2-Oxo-2,3,4,5-tetrahydro-1H-benzo[b]azepin-1-yl)-N-[2-(piperazin-1-yl)ethyl]acetamide dihydrochloride]: the activity at 30 µM in [2] was 98.8 ± 18.7%. Also, the viability at 20 µM in series [5] worked out at 98.4 ± 11.8%. Further, the kinetic solubility at 10 s in series [3] was > 0.001 M. Besides, in series [4], the solubility (thermodynamic) at 72 h was > 0.248 M.

In the case of `CON=C1CCC(=O)N(CC(=O)N2CCCC2)c2ccccc21` (mixture of isomers) [5c, (E/Z)-5-(Methoxyimino)-1-[2-oxo-2-(pyrrolidin-1-yl)ethyl]-1,3,4,5-tetrahydro-2H-benzo[b]azepin-2-one], in series [2], the activity at 30 µM turned out to be 86.9 ± 3.6%. The kinetic solubility at 10 s in series [3] was > 0.00398 M. The compound also gave a thermodynamic solubility at 72 h in series [4] of 0.0263 M.

The term EC50 denotes the concentration that produces a half-maximal response. As to `CNCCNC(=O)CN1C(=O)Cc2c([nH]c3ccc(Br)cc23)-c2ccc(Cl)cc21` [1c], in [7] (30 μM, displayed for comparison), the “TbTryS activity [% at 30 μM]” value is 41.0 ± 6.0%. Besides, in series [7] (used as inhibition control, read-out: concentration that inhibited 50% TryS activity (TbTryS)), the IC50 was 30 µM. In series [8], the EC50 is 4.3 ± 0.7 µM. Also, in series [9], the “inhibition mechanism on LiTryS” value is “competitive to Spd and Gsp, and uncompetitive to ATP and GSH”.

As for `CNCCNC(=O)CN1C(=O)Cc2c([nH]c3ccc(Br)cc23)-c2ccccc21` [1b], the “CfTryS inhibition at 10 μM compound concentration” value in series [10] is 92%.
